Our source for the IC50 values is ChEMBL document CHEMBL1140501, “Validation of an automated procedure for the prediction of relative free energies of binding on a set of aldose reductase inhibitors” (Bioorg Med Chem, 2007).

The target of this test is Aldo-keto reductase family 1 member B1 (Homo sapiens, UniProt P15121). As to the kind of experiment: Inhibition of aldose reductase.
For the molecule `O=C(O)COc1cc(F)ccc1C(=S)NCc1ccc(Br)cc1F`, the midpoint of inhibition, the IC50, lay at 30 nM.

Turning to `Cc1ccccc1CC(=O)Nc1cc(C)c(S(=O)(=O)NCC(=O)O)c(C)c1`, the IC50 – broadly, the concentration needed to halve the response being measured – stood at 108 nM.

Molecule `O=C(O)Cn1c(=O)n(Cc2ccc(Br)cc2F)c(=O)c2ccc(Cl)cc21` [ZENARESTAT] had an IC50 of 44 nM.

`O=C1C[C@@]2(C(=O)N1)C(=O)N(Cc1ccc(Br)cc1F)C(=O)c1cccn12` displayed an IC50 of 15 nM.

Molecule `O=C(O)COc1ccccc1C(=O)NCc1ccc(Br)cc1F` gave an IC50 of 176 nM.

Turning to `O=C(O)Cc1ccccc1` [PHENYLACETIC ACID], the IC50 worked out at 96000 nM.

In turn, `O=C(O)Cc1nn(Cc2ccc(Br)cc2F)c(=O)c2ccccc12` [PONALRESTAT] displayed a half-inhibitory concentration (IC50) of 56.5 nM.

As to `O=C(O)Cc1c(Cl)cccc1Cl`, it took 4400 nM to reach half-maximal inhibition (IC50).

As for `O=C(O)Cc1nn(Cc2nc3ccc(C(F)(F)F)cc3s2)c(=O)c2ccccc12`, half-maximal inhibition (IC50) required 3.1 nM.

Consider `O=C1C[C@]2(C(=O)N1)C(=O)N(Cc1ccc(Br)cc1F)C(=O)c1cccn12`, for which 190 nM corresponded to half-maximal inhibition (IC50).
